Source: ChEMBL document CHEMBL4825763, “Discovery of potent and selective Bcl-2 inhibitors with acyl sulfonamide skeleton” (Bioorg Med Chem, 2021)
The source made the active and inactive calls. No cut-off for these calls is given here.

Assays:
[1] = biological target: Bcl-2-like protein 1 (Homo sapiens, UniProt Q07817); test: Displacement of Bak derived peptide from Bcl-xL (unknown origin) measured after 15 mins by microplate reader assay
[2] = tested on: RS4-11; test: Antiproliferative activity against human RS4-11 cells assessed as inhibition of cell proliferation measured after 72 hrs by CCK8 assay; format: functional, cell-based; settings: RS4-11, 72 h
[3] = biological target: Apoptosis regulator Bcl-2 (Homo sapiens, UniProt P10415); test: Displacement of Bak derived peptide from Bcl-2 (unknown origin) measured after 15 mins by microplate reader assay
[4] = Metabolic stability in mouse liver microsomes assessed as parent compound remaining incubated for 60 mins in presence of NADPH; format: ADME, Microsome; settings: read-out: Stabilty
[5] = Metabolic stability in human liver microsomes assessed as parent compound remaining incubated for 60 mins in presence of NADPH; format: ADME, Microsome; settings: read-out: Stabilty
[6] = Metabolic stability in rat liver microsomes assessed as parent compound remaining incubated for 60 mins in presence of NADPH; format: ADME, Microsome; settings: read-out: Stabilty
[7] = MRT (0 to t) in rat at 5 mg/kg, ig administered as single dose measured upto 24 hrs by LC-MS/MS analysis; format: ADME, organism-based; settings: in vivo, po
[8] = biological target: T1, Caspase-3 (Canis lupus familiaris) (UniProt Q8MKI5); test: Induction of caspase 3 activity in dog platelets assessed as cleavage of Ac-DEVD-Pna at 0.5 to 2.5 uM using Ac-DEVD-pNA as substrate incubated for 90 mins; format: tissue-based; settings: Platelet, dose 0.5-2.5 µM
T1 sequence (whole entry): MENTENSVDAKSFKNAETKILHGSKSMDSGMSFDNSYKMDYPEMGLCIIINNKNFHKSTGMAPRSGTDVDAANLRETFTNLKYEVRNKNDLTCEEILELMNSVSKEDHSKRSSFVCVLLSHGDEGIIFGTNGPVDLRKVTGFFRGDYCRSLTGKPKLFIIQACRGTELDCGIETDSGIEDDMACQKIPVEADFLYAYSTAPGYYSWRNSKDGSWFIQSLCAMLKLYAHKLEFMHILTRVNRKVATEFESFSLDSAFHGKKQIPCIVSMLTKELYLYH

[9] = Cmax in mouse at 10 mg/kg, ig administered as single dose v measured upto 24 hrs by LC-MS/MS analysis; format: ADME, organism-based; design: route intragastric, dose 10 mg/kg, time <=24; settings: in vivo, po
[10] = Tmax in rat at 5 mg/kg, ig administered as single dose measured upto 24 hrs by LC-MS/MS analysis; format: ADME, organism-based; settings: in vivo, po
[11] = MRT (0 to t) in mouse at 10 mg/kg, ig administered as single dose measured upto 24 hrs by LC-MS/MS analysis; format: ADME, organism-based; settings: in vivo, po
[12] = Toxicity in C57BL/6 mouse plasma assessed as effect on platelet count at 300 mg/kg, ig for 4 hrs; format: organism-based; settings: in vivo, po
[13] = AUC (0 to t) in rat at 5 mg/kg, ig administered as single dose measured upto 24 hrs by LC-MS/MS analysis; format: ADME, organism-based; design: route intragastric, dose 5 mg/kg, time <=24; settings: in vivo, po
[14] = Tmax in mouse at 10 mg/kg, ig administered as single dose measured upto 24 hrs by LC-MS/MS analysis; format: ADME, organism-based; settings: in vivo, po
[15] = Cmax in rat at 5 mg/kg, ig administered as single dose measured upto 24 hrs by LC-MS/MS analysis; format: ADME, organism-based; design: route intragastric, dose 5 mg/kg, time <=24; settings: in vivo, po
[16] = AUC (0 to t) in mouse at 10 mg/kg, ig administered as single dose measured upto 24 hrs by LC-MS/MS analysis; format: ADME, organism-based; design: route intragastric, dose 10 mg/kg, time <=24; settings: in vivo, po
[17] = AUC (0 to infinity) in mouse at 10 mg/kg, ig administered as single dose measured upto 24 hrs by LC-MS/MS analysis; format: ADME, organism-based; design: route intragastric, dose 10 mg/kg, time <=24; settings: in vivo, po
[18] = Half life in rat at 5 mg/kg, ig administered as single dose measured upto 24 hrs by LC-MS/MS analysis; format: ADME, organism-based; settings: in vivo, po
[19] = AUC (0 to infinity) in rat at 5 mg/kg, ig administered as single dose measured upto 24 hrs by LC-MS/MS analysis; format: ADME, organism-based; design: route intragastric, dose 5 mg/kg, time <=24; settings: in vivo, po
[20] = Half life in mouse at 10 mg/kg, ig administered as single dose measured upto 24 hrs by LC-MS/MS analysis; format: ADME, organism-based; settings: in vivo, po

Bcl-2-like protein 1, sequence (Q07817 whole entry): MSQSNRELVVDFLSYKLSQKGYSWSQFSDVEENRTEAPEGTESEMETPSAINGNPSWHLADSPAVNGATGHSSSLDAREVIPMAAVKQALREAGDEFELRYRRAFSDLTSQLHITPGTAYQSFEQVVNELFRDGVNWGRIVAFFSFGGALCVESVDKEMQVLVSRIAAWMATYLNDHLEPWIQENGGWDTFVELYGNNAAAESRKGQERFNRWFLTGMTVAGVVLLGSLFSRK
Apoptosis regulator Bcl-2, sequence (P10415 whole entry): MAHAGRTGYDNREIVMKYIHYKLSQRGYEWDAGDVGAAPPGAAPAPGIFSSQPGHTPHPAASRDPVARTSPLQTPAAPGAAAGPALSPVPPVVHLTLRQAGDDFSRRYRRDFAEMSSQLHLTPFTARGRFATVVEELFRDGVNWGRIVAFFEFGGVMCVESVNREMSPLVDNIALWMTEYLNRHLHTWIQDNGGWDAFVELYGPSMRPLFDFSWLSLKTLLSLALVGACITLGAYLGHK

Compound	IC50 [1]	IC50 [2]	IC50 [3]	further results
CN1CCC(COc2ccc(S(=O)(=O)NC(=O)c3ccc(N4CCN(CC5=C(c6ccc(C(F)(F)F)cc6)CC(C)(C)CC5)CC4)cc3Oc3cnc4[nH]ccc4c3)cc2[N+](=O)[O-])C1 (stereo unspecified)	16.8 nM	10 nM	0.75 nM	–
CC1(C)CCC(CN2CCN(c3ccc(C(=O)NS(=O)(=O)c4ccc(NCC5CCOC5)c([N+](=O)[O-])c4)c(Oc4cnc5[nH]ccc5c4)c3)CC2)=C(c2ccc(C(F)(F)F)cc2)C1 (stereo unspecified)	897 nM	24.2 nM	4.7 nM	–
CC1(C)CCC(CN2CCN(c3ccc(C(=O)NS(=O)(=O)c4ccc(OC5CCOCC5)c([N+](=O)[O-])c4)c(Oc4cnc5[nH]ccc5c4)c3)CC2)=C(c2ccc(C(F)(F)F)cc2)C1	> 2000 nM	375 nM	8.4 nM	–
CN(C)CCCNc1ccc(S(=O)(=O)NC(=O)c2ccc(N3CCN(CC4=C(c5ccc(C(F)(F)F)cc5)CC(C)(C)CC4)CC3)cc2Oc2cnc3[nH]ccc3c2)cc1[N+](=O)[O-]	29 nM	3.9 nM	0.89 nM	–
COc1ccc(C2=C(CN3CCN(c4ccc(C(=O)NS(=O)(=O)c5ccc(NCC6CCOCC6)c([N+](=O)[O-])c5)c(Oc5cnc6[nH]ccc6c5)c4)CC3)CCC(C)(C)C2)cc1	813 nM	12 nM	3.8 nM	–
CC1(C)CCC(CN2CCN(c3ccc(C(=O)NS(=O)(=O)c4ccc(OCC5CCSCC5)c([N+](=O)[O-])c4)c(Oc4cnc5[nH]ccc5c4)c3)CC2)=C(c2ccc(C(F)(F)F)cc2)C1	500 nM	15 nM	1.65 nM	–
CCN1CCC(COc2ccc(S(=O)(=O)NC(=O)c3ccc(N4CCN(CC5=C(c6ccc(C(F)(F)F)cc6)CC(C)(C)CC5)CC4)cc3Oc3cnc4[nH]ccc4c3)cc2[N+](=O)[O-])CC1	34.6 nM	4.9 nM	0.5 nM	–
CC1(C)CCC(CN2CCN(c3ccc(C(=O)NS(=O)(=O)c4ccc(NCC5CCOCC5)c([N+](=O)[O-])c4)c(Oc4cnc5[nH]ccc5c4)c3)CC2)=C(c2cccc(C(F)(F)F)c2)C1	–	63 nM	–	–
CC1(C)CCC(CN2CCN(c3ccc(C(=O)NS(=O)(=O)c4ccc(NCC5CCOCC5)c([N+](=O)[O-])c4)c(Oc4cnc5[nH]ccc5c4)c3)CC2)=C(c2ccc(C(F)(F)F)c(Cl)c2)C1	> 2000 nM	81 nM	–	–
CC1(C)CCC(CN2CCN(c3ccc(C(=O)NS(=O)(=O)c4ccc(NCC5CCOCC5)c([N+](=O)[O-])c4)c(Oc4cnc5[nH]ccc5c4)c3)CC2)=C(c2ccccc2C(F)(F)F)C1	200 nM	18 nM	1.7 nM	–
CC1(C)CCC(CN2CCN(c3ccc(C(=O)NS(=O)(=O)c4ccc(NC5CCOC5)c([N+](=O)[O-])c4)c(Oc4cnc5[nH]ccc5c4)c3)CC2)=C(c2ccc(C(F)(F)F)cc2)C1 (stereo unspecified)	837 nM	32 nM	1.9 nM	–
CC(C)C(=O)N1CCC(CNc2ccc(S(=O)(=O)NC(=O)c3ccc(N4CCN(CC5=C(c6ccc(C(F)(F)F)cc6)CC(C)(C)CC5)CC4)cc3Oc3cnc4[nH]ccc4c3)cc2[N+](=O)[O-])CC1	453 nM	5.3 nM	2.4 nM	–
CN1CCC(CNc2ccc(S(=O)(=O)NC(=O)c3ccc(N4CCN(CC5=C(c6ccc(C(F)(F)F)cc6)CC(C)(C)CC5)CC4)cc3Oc3cnc4[nH]ccc4c3)cc2[N+](=O)[O-])C1 (stereo unspecified)	35.7 nM	8.3 nM	2.4 nM	–
CC(Oc1ccc(S(=O)(=O)NC(=O)c2ccc(N3CCN(CC4=C(c5ccc(C(F)(F)F)cc5)CC(C)(C)CC4)CC3)cc2Oc2cnc3[nH]ccc3c2)cc1[N+](=O)[O-])C1CCOCC1 (stereo unspecified)	618 nM	269 nM	9.2 nM	–
CC1(C)CCC(CN2CCN(c3ccc(C(=O)NS(=O)(=O)c4ccc(OCC5CCOC5)c([N+](=O)[O-])c4)c(Oc4cnc5[nH]ccc5c4)c3)CC2)=C(c2ccc(C(F)(F)F)cc2)C1 (stereo unspecified)	1700 nM	47 nM	4.4 nM	–
CC1(C)CCC(CN2CCN(c3ccc(C(=O)NS(=O)(=O)c4ccc(NCC5CCOCC5)c([N+](=O)[O-])c4)c(Oc4cnc5[nH]ccc5c4)c3)CC2)=C(c2ccc(Cl)cc2C(F)(F)F)C1	> 2000 nM	74 nM	–	–
CC1(C)CCC(CN2CCN(c3ccc(C(=O)NS(=O)(=O)c4ccc(OCC5CCCOC5)c([N+](=O)[O-])c4)c(Oc4cnc5[nH]ccc5c4)c3)CC2)=C(c2ccc(C(F)(F)F)cc2)C1 (stereo unspecified)	761 nM	12 nM	3 nM	–
CC1(C)CCC(CN2CCN(c3ccc(C(=O)NS(=O)(=O)c4ccc(NCC5CCOCC5)c([N+](=O)[O-])c4)c(Oc4cnc5[nH]ccc5c4)c3)CC2)=C(c2ccc(C(F)(F)F)cc2)C1	788 nM	6.2 nM	1.5 nM	–
CC1(C)CCC(CN2CCN(c3ccc(C(=O)NS(=O)(=O)c4ccc(NCC5CCOCC5)c([N+](=O)[O-])c4)c(Oc4cnc5[nH]ccc5c4)c3)CC2)=C(c2ccc(Cl)cc2)C1 [VENETOCLAX]	–	1.8 nM	–	remaining at 1 h [4]: 58.8%; remaining at 1 h [5]: 54.9%; remaining at 1 h [6]: 46.3%; MRT last at 24 h [7]: 3.55 h; Activity [8]: inactive; Cmax [9]: 1310 ng/mL; Tmax [10]: 2.67 h; MRT last at 24 h [11]: 4.71 h; Activity [12]: Toxic; AUC(0-t) at 24 h [13]: 1380 ng·h/mL; Tmax [14]: 1.67 h; Cmax [15]: 355 ng/mL; AUC(0-t) at 24 h [16]: 7760 ng·h/mL; AUC(0-inf) [17]: 8100 ng·h/mL; half-life [18]: 1.9 h; AUC(0-inf) [19]: 1470 ng·h/mL; half-life [20]: 2.78 h
CCN(CC)CCCNc1ccc(S(=O)(=O)NC(=O)c2ccc(N3CCN(CC4=C(c5ccc(C(F)(F)F)cc5)CC(C)(C)CC4)CC3)cc2Oc2cnc3[nH]ccc3c2)cc1[N+](=O)[O-]	25 nM	3 nM	0.3 nM	–
CC1(C)CCC(CN2CCN(c3ccc(C(=O)NS(=O)(=O)c4ccc(OCC5CCOCC5)c([N+](=O)[O-])c4)c(Oc4cnc5[nH]ccc5c4)c3)CC2)=C(c2ccc(C(F)(F)F)cc2)C1	862 nM	5.9 nM	1 nM	remaining at 1 h [4]: 76.6%; remaining at 1 h [5]: 75.8%; remaining at 1 h [6]: 74.8%; MRT last at 24 h [7]: 5.18 h; Activity [8]: inactive; Cmax [9]: 920 ng/mL; Tmax [10]: 2.67 h; MRT last at 24 h [11]: 5.7 h; Activity [12]: Non-Toxic; AUC(0-t) at 24 h [13]: 2620 ng·h/mL; Tmax [14]: 4 h; Cmax [15]: 438 ng/mL; AUC(0-t) at 24 h [16]: 6960 ng·h/mL; AUC(0-inf) [17]: 7000 ng·h/mL; half-life [18]: 4.5 h; AUC(0-inf) [19]: 3130 ng·h/mL; half-life [20]: 2.99 h
